Test results from patent US12286435B2, “Compound having benzo seven-membered ring structure, preparation method therefor, and use thereof” (BIONNA (BEIJING) MEDICAL TECHNOLOGY CO., LTD., priority 2019, dated 2025).
Structures can show the parent of a compound that is named as a salt. Where two headings read alike, the source gives them in different places.

Legend:
BRD4 BD2 protein = BRD4 BD2 protein (Homo sapiens (Human), UniProt O60885); assay: Fluorescence polarization binding affinity (Ki) with BRD4 BD2 protein
BRD4 BD1 protein = BRD4 BD1 protein (Homo sapiens (Human), UniProt O60885); assay: Fluorescence polarization binding affinity (Ki) with BRD4 BD1 protein
[1] = fluorescence polarization, Ki calculated from IC50

Compound | Ki (BRD4 BD2 protein) [nM] | Ki (BRD4 BD1 protein) [nM] | Ki (BRD4 BD2 protein; [1]) [nM] | Ki (BRD4 BD1 protein; [1]) [nM]
Cc1nnn2c1-c1ccc(C3=CCN(C4CCC4)CC3)cc1C(Nc1cccc(Cl)c1F)CC2 (stereo not shown) [RE30, N-(3-chloro-2-fluorophenyl)-9-(1-cyclobutyl-1,2,3,6-tetrahydropyridin-4-yl)-1-methyl-6,7-dihydro-5H-benzo[c][1,2,3]triazolo[1,5-a]azepin-7-amine 2,2,2-trifluoroacetate] | 30.2 | 413 |  | 
Cc1nnn2c1-c1ccc(C3=CCN(C4CCCCC4)CC3)cc1C(Nc1cccc(S(C)(=O)=O)c1)CC2 (stereo not shown) [BI57, 9-(1-cyclohexyl-1,2,3,6-tetrahydropyridin-4-yl)-1-methyl-N-(3-(methylsulfonyl)phenyl)-6,7-dihydro-5H-benzo[c][1,2,3]triazolo[1,5-a]azepin-7-amine 2,2,2-trifluoroacetate] |  |  | 147 | 3610
Cc1nnn2c1-c1ccc(C3=CCN(C4CCCC4)CC3)cc1C(Nc1cccc(C#N)c1)CC2 (stereo not shown) [BI31, 3-((9-(1-cyclopentyl-1,2,3,6-tetrahydropyridin-4-yl)-1-methyl-6,7-dihydro-5H-benzo[c][1,2,3]triazolo[1,5-a]azepin-7-yl)amino)benzonitrile 2,2,2-trifluoroacetate] |  |  | 151 | 2290
Cc1nnn2c1-c1ccc(C3=CCNCC3)cc1C(Nc1cc(Cl)ccc1F)CC2 (stereo not shown) [LD08, N-(5-chloro-2-fluorophenyl)-1-methyl-9-(1,2,3,6-tetrahydropyridin-4-yl)-6,7-dihydro-5H-benzo[c][1,2,3]triazolo[1,5-a]azepin-7-amine 2,2,2-trifluoroacetate] |  |  | 62.3 | 1270
Cc1nnn2c1-c1ccc(C3=CCN(C4CCCCC4)CC3)cc1C(Nc1cccc(Cl)c1F)CC2 (stereo not shown) [RD178, N-(3-chloro-2-fluorophenyl)-9-(1-cyclohexyl-1,2,3,6-tetrahydropyridin-4-yl)-1-methyl-6,7-dihydro-5H-benzo[c][1,2,3]triazolo[1,5-a]azepin-7-amine 2,2,2-trifluoroacetate] | 32.7 | 1260 |  | 
Cc1nnn2c1-c1ccc(C3=CCN(C(=O)C4CC4)CC3)cc1C(Nc1cccc(Cl)c1)CC2 (stereo not shown) [BH123, (4-(7-((3-chlorophenyl)amino)-1-methyl-6,7-dihydro-5H-benzo[c][1,2,3]triazolo[1,5-a]azepin-9-yl)-3,6-dihydropyridin-1 (2H)-yl) (cyclopropyl)methanone] |  |  | 7.64 | 46.7
Cc1nnn2c1-c1ccc(C3=CCNC3)cc1C(Nc1cccc(O)c1)CC2 (stereo not shown) [BJ183, 3-((9-(2,5-dihydro-1H-pyrrol-3-yl)-1-methyl-6,7-dihydro-5H-benzo[d][1,2,3]triazolo[1,5-a]azepin-7-yl)amino)phenol 2,2,2-trifluoroacetate] |  |  | 45 | 939
Cc1nnn2c1-c1ccc(C3CCNCC3)cc1C(Nc1ccc(Cl)cc1)CC2 (stereo not shown) [BF169, N-(4-chlorophenyl)-1-methyl-9-(piperidin-4-yl)-6,7-dihydro-5H-benzo[c][1,2,3]triazolo[1,5-a]azepin-7-amine hydrochloride] |  |  | 661 | > 20000
Cc1nnn2c1-c1ccc(C3=CCN(C)CC3)cc1C(Nc1ccc(CO)cc1)CC2 (stereo not shown) [RD41, (4-((1-methyl-9-(1-methyl-1,2,3,6-tetrahydropyridin-4-yl)-6,7-dihydro-5H-benzo[c][1,2,3]triazolo[1,5-a]azepin-7-yl)amino)pheny 1)methanol 2,2,2-trifluoroacetate] |  |  | 55.1 | 1550
Cc1nnn2c1-c1ccc(C3=CCN(C(C)C)CC3)cc1C(Nc1cccc(C#N)c1)CC2 (stereo not shown) [BI34, 3-((9-(1-isopropyl-1,2,3,6-tetrahydropyridin-4-yl)-1-methyl-6,7-dihydro-5H-benzo[c][1,2,3]triazolo[1,5-a]azepine7-yl)amino)benzonitrile 2,2,2-trifluoroacetate] |  |  | 291 | 4200
Cc1nnn2c1-c1ccc(C3=CCNCC3)cc1C(Nc1cccc(CC#N)c1)CC2 (stereo not shown) [RC71, 2-(3-((1-methyl-9-(1,2,3,6-tetrahydropyridin-4-yl)-6,7-dihydro-5H-benzo[c][1,2,3]triazolo[1,5-a]azepin-7-yl)amino)phenyl)acetonitrile 2,2,2-trifluoroacetate] |  |  | 52.5 | 1040
Cc1nnn2c1-c1ccc(C3=CCNCC3)cc1C(Nc1ccc(OCCO)cc1)CC2 (stereo not shown) [LC133, 2-(4-((1-methyl-9-(1,2,3,6-tetrahydropyridin-4-yl)-6,7-dihydro-5H-benzo[c][1,2,3]triazolo[1,5-a]azepin-7-yl)amino)phenoxy)ethan-1-ol 2,2,2-trifluoroacetate] |  |  | 207 | 2190
Cc1nnn2c1-c1ccc(C3=CCN(C4CCC4)CC3)cc1C(Nc1ccc(F)c(Cl)c1)CC2 (stereo not shown) [BI23, N-(3-chloro-4-fluorophenyl)-9-(1-cyclobutyl-1,2,3,6-tetrahydropyridin-4-yl)-1-methyl-6,7-dihydro-5H-benzo[c][1,2,3]triazolo[1,5-a]azepin-7-amine 2,2,2-trifluoroacetate] |  |  | 57.3 | 1060
Cc1nnn2c1-c1ccc(-c3cnn(C)c3)cc1[C@H](Nc1cccc(Cl)c1)CC2 [RE124, (R)—N-(3-chlorophenyl)-1-methyl-9-(1-methyl-1H-pyrazol-4-yl)-6,7-dihydro-5H-benzo[c][1,2,3]triazolo[1,5-a]azepin-7-amine] |  |  | < 1 | 9.92 ± 3.36
COc1ccc(NC2CCn3nnc(C)c3-c3ccc(C4=CCNCC4)cc32)cc1 (stereo not shown) [LC160, N-(4-methoxyphenyl)-1-methyl-9-(1,2,3,6-tetrahydropyridin-4-yl)-6,7-dihydro-5H-benzo[c][1,2,3]triazolo[1,5-a]azepin-7-amine 2,2,2-trifluoroacetate] |  |  | 114 | 2270
CCN1CC=C(c2ccc3c(c2)C(Nc2cccc(Cl)c2F)CCn2nnc(C)c2-3)CC1 (stereo not shown) [RD115, N-(3-chloro-2-fluorophenyl)-9-(1-ethyl-1,2,3,6-tetrahydropyridin-4-yl)-1-methyl-6,7-dihydro-5H-benzo[c][1,2,3]triazolo[1,5-a]azepin-7-amine 2,2,2-trifluoroacetate] |  |  | 59.1 | 1130
Cc1nnn2c1-c1ccc(C3=CCNCC3)cc1C(Nc1ccc(F)cc1)CC2 (stereo not shown) [BJ122, N-(4-fluorophenyl)-1-methyl-9-(1,2,3,6-tetrahydropyridin-4-yl)-6,7-dihydro-5H-benzo[c][1,2,3]triazolo[1,5-a]azepin-7-amine 2,2,2-trifluoroacetate] |  |  | 68.6 | 757
Cc1nnn2c1-c1ccc(-c3cnn(C)c3)cc1C(Nc1cccc(Cl)c1)CC2 (stereo not shown) [LC186, N-(3-chlorophenyl)-1-methyl-9-(1-methyl-1H-pyrazol-4-yl)-6,7-dihydro-5H-benzo[c][1,2,3]triazolo[1,5-a]azepin-7-amine] |  |  | 6.98 | 31.3
Cc1nnn2c1-c1ccc(C3=CCN(C4CCCC4)CC3)cc1C(Nc1cccc(Cl)c1)CC2 (stereo not shown) [BH107, N-(3-chlorophenyl)-9-(1-cyclopentyl-1,2,3,6-tetrahydropyridin-4-yl)-1-methyl-6,7-dihydro-5H-benzo[c][1,2,3]triazolo[1,5-a]azepin-7-amine 2,2,2-trifluoroacetate] |  |  | 17.6 | 1740
Cc1nnn2c1-c1ccc(C3=CCNCC3)cc1C(Nc1ccc(F)c(Cl)c1)CC2 (stereo not shown) [LC192, N-(3-chloro-4-fluorophenyl)-1-methyl-9-(1,2,3,6-tetrahydropyridin-4-yl)-6,7-dihydro-5H-benzo[c][1,2,3]triazolo[1,5-a]azepin-7-amine 2,2,2-trifluoroacetate] |  |  | 56.6 | 819
